# In PMC9221108 (2022):
# Key:
# [1] = tested on: 5AG4 (DNA, G4) AAAAAGGGTGGGTGGGTGGGTTTTT; assay: SGI fluorescence quenching on hemin addition; conditions: K+ (varied); 10 mM Tris-HCl pH 8.4, 0.2% Tween 20, 0.3x SGI; K+-folded parallel G4
# [2] = tested on: 5AG4-FAM (DNA, G4) AAAAAGGGTGGGTGGGTGGGTTTTT; assay: FAM fluorescence quenching on hemin addition; conditions: K+ (varied); 10 mM Tris-HCl pH 8.4; K+-folded parallel G4
# [3] = tested on: OTAapt31 (DNA, aptamer) GATCGGGTGTGGGTGGCGTAAAGGGAGCATC; assay: SGI fluorescence quenching; conditions: 6.25 mM Ca2+; 10 mM Tris-HCl pH 8.4, 0.3x SGI, 20 nM aptamer; tested at 62.5 nM
# [4] = tested on: OTAapt31 (DNA, aptamer) GATCGGGTGTGGGTGGCGTAAAGGGAGCATC; assay: SGI fluorescence enhancement; conditions: 6.25 mM Ca2+; 10 mM Tris-HCl pH 8.4, 0.3x SGI, 20 nM aptamer; no OTA; terminal duplex stem
# [5] = tested on: OTAapt31 (DNA, aptamer) GATCGGGTGTGGGTGGCGTAAAGGGAGCATC; assay: SGI fluorescence quenching on CV addition; conditions: 6.25 mM Ca2+; 10 mM Tris-HCl pH 8.4, 0.3x SGI; OTA-folded antiparallel G4
# [6] = tested on: OTAapt31-FAM (DNA, aptamer) GATCGGGTGTGGGTGGCGTAAAGGGAGCATC; assay: FAM fluorescence quenching on CV addition; conditions: 6.25 mM Ca2+; 10 mM Tris-HCl pH 8.4; OTA-folded antiparallel G4
# [7] = tested on: OTAapt36 (DNA, aptamer) GATCGGGTGTGGGTGGCGTAAAGGGAGCATCGGACA; assay: fluorescence quenching titration; conditions: 6.25 mM Ca2+; 10 mM Tris-HCl pH 8.4, 0.2% Tween 20, 0.3x SGI, 20 nM aptamer, room temperature; apparent
# [8] = tested on: OTAapt31 (DNA, aptamer) GATCGGGTGTGGGTGGCGTAAAGGGAGCATC; assay: fluorescence quenching titration; conditions: 6.25 mM Ca2+; 10 mM Tris-HCl pH 8.4, 0.2% Tween 20, 0.3x SGI, 20 nM aptamer, room temperature; apparent
# [9] = tested on: G31C (DNA, aptamer) GGATCGGGTGTGGGTGGCGTAAAGGGAGCATCC; assay: fluorescence quenching titration; conditions: 6.25 mM Ca2+; 10 mM Tris-HCl pH 8.4, 0.2% Tween 20, 0.3x SGI, 20 nM aptamer, room temperature; apparent
# [10] = tested on: OTAapt31-FAM (DNA, aptamer) GATCGGGTGTGGGTGGCGTAAAGGGAGCATC; assay: FAM fluorescence quenching titration; conditions: 6.25 mM Ca2+; 10 mM Tris-HCl pH 8.4, room temperature; apparent
smiles,measurement,setting,value
C=CC1=C(C)C2=Cc3c(C=C)c(C)c4[n]3[Fe]([Cl])[n]3c(c(C)c(CCC(=O)O)c3=CC3=NC(=C4)C(C)=C3CCC(=O)O)=CC1=N2,binding,[1],yes
same,binding,[2],yes
CCCC[C@@H](C)[C@@H](OC(=O)C[C@@H](CC(=O)O)C(=O)O)[C@H](C[C@@H](C)C[C@H](O)CCCC[C@@H](O)C[C@H](O)[C@H](C)N)OC(=O)C[C@@H](CC(=O)O)C(=O)O,binding,[3],no
CCCN(CCCN(C)C)c1cc(C=C2Sc3ccccc3N2C)c2ccccc2[n+]1-c1ccccc1,binding,[4],yes
CN(C)c1ccc(C(=C2C=CC(=[N+](C)C)C=C2)c2ccc(N(C)C)cc2)cc1,binding,[5],yes
same,binding,[6],yes
C[C@@H]1Cc2c(Cl)cc(C(=O)N[C@@H](Cc3ccccc3)C(=O)O)c(O)c2C(=O)O1,IC50,[7],55.7 nM
same,IC50,[8],20.6 nM
same,IC50,[9],17.8 nM
same,IC50,[10],19.8 nM
C[C@@H]1Cc2ccc(C(=O)N[C@@H](Cc3ccccc3)C(=O)O)c(O)c2C(=O)O1,binding,[3],no
C[C@H]1CCCC(=O)CCC/C=C/c2cc(O)cc(O)c2C(=O)O1,binding,[3],no
O=C1C=C2C(=CCOC2O)O1 (stereo not shown),binding,[3],no
